The conditions of series [1]: experimental values from EPA Chemistry Dashboard; cited from earlier work.
The conditions of series [2]: cited from earlier work; for published half-lives: biological half-lives quoted in abstract.
Series [3] can be described thus: Serum PFAS measurement by LC-HRMS, GenX Exposure Study participants. Particulars: human, in vivo.
For series [4] the following is noted: predicted values from EPA Chemistry Dashboard; cited from earlier work.
For series [5] the following is noted: both, human, in vivo.
Setting [6] is: weighted average, ref Zhang et al. 16.
Where [7] appears, read: literature serum half-life, ref Li et al. 19.
[8] abbreviates: literature serum half-life, ref Li et al. 12.

Here are results for 16 molecules from article PMC10790670 (Environmental science & technology, 2023).

Where “and” joins values, the source holds several entries; their conditions need not be identical. Equal entries are not always repeated. Where two headings read alike, the source gives them in different places. Marks after values point to notes of the source that are not given here.

For orientation: half-life means the time needed for the level to fall by half in the phase considered. Regarding `O=S(=O)(O)C(F)(F)C(F)(F)C(F)(F)C(F)(F)F` [PFBS, perfluorobutanesulfonic acid], the logKow in series [1] was 2.76^b. For the same molecule, in series [2] (ref Olsen et al. 54), the half-life is recorded as 26^h days.

As for `O=C(O)C(F)(F)OC(F)(F)OC(F)(F)OC(F)(F)F` [PFO3OA, perfluoro-3,5,7-trioxaoctanoic acid], the concentration at 5 months in series [3] is 1.02 ng/mL. For the same molecule, in series [4], the logKow is 6.07^a.

In the case of `O=C(O)C(F)(F)C(F)(F)C(F)(F)C(F)(F)C(F)(F)C(F)(F)C(F)(F)C(F)(F)C(F)(F)F` [PFDA], in series [1], the logKow is 4.15^b. For the same molecule, in series [2] (setting [6]), the half-life is listed as 3743^i days.

As for `O=S(=O)(O)C(F)(F)C(F)(F)C(F)(F)C(F)(F)C(F)(F)C(F)(F)F` [PFHxS, perfluorohexanesulfonic acid], the logKow in series [4] is 3.48^a. In addition, the half-life in series [2] (setting [7]) is on record as 1661^e days.

Take `O=C(O)C(F)(F)C(F)(F)C(F)(F)C(F)(F)C(F)(F)C(F)(F)F` [PFHpA, perfluoroheptanoic acid]: in series [1], the logKow is recorded as 2.05^b. Moreover, the published half-lives in series [2] is 30 to 60 days. Further, the half-life in series [2] (setting [6]) is 464^i days.

Consider `O=C(O)C(F)(F)C(F)(F)C(F)(F)C(F)(F)C(F)(F)C(F)(F)C(F)(F)C(F)(F)F` [PFNA, perfluorononanoic acid], for which the logKow in series [1] is on record as 3.54^b. Moreover, the half-life in series [2] (setting [6]) is on record as 1417^i days.

On to `O=S(=O)(O)C(F)(F)C(F)(F)C(F)(F)C(F)(F)C(F)(F)C(F)(F)C(F)(F)F` [PFHpS], for which the logKow in series [4] is 4.85^a. The half-life in series [2] (setting [7]) is given as 533^e days.

Consider `O=S(=O)(O)C(F)(F)C(F)(F)C(F)(F)C(F)(F)C(F)(F)F` [PFPeS], for which the logKow in series [4] was 3.38^a. For the same molecule, the half-life in series [2] (setting [7]) is on record as 343^e days.

Consider `O=C(O)C(F)(F)OC(F)(F)OC(F)(F)OC(F)(F)OC(F)(F)F` [PFO4DA, perfluoro-3,5,7,9-tetraoxadecanoic acid], for which, in series [3], the concentration at 5 months is 5.6 ng/mL and the concentration at 11 months was determined as 1.16 ng/mL. Further, in series [5], the “effect of age on concentration” value came out at 0.0129 ng/mL/year and the “effect of gender concentration in males” value turned out to be 0.376 ng/mL. The logKow in series [4] is given as 8.53^a.

As to `O=C(O)C(F)(F)C(F)(F)C(F)(F)C(F)(F)C(F)(F)C(F)(F)C(F)(F)C(F)(F)C(F)(F)C(F)(F)F` [PFUnA], the logKow in series [1] was 4.00^b. Moreover, the half-life in series [2] (setting [6]) is listed as 3743^i days.

In the case of `O=S(=O)(O)C(F)(F)C(F)(F)C(F)(F)C(F)(F)C(F)(F)C(F)(F)C(F)(F)C(F)(F)F` [PFOS, perfluorooctanesulfonic acid], the logKow in series [1] is reported as 5.61^b. Moreover, the published half-lives in series [2] was 800 to 1200 days. Further, the half-life in series [2] (setting [8]) is 1241^d days.

In series [3], `O=C(O)C(F)(F)OC(F)(F)OC(F)(F)OC(F)(F)OC(F)(F)OC(F)(F)F` [PFO5DoA, perfluoro-3,5,7,9,11-pentaoxadodecanoic acid] yielded a concentration at 5 months of 12.4 ng/mL and a concentration at 11 months of 8.91 ng/mL. In series [5], the “effect of age on concentration” value was 0.0160 ^* ng/mL/year and the “effect of gender concentration in males” value amounted to 0.298 ng/mL.

Take `O=C(O)C(F)(OC(F)(F)C(F)(F)C(F)(F)F)C(F)(F)F` (stereo not shown) [GenX, hexafluoropropylene oxide dimer acid]: the logKow in series [4] was 5.13^a. The half-life in series [2] (in workers, ECHA estimate) is 81 h; in series [2] (values from ECHA report), 3.375^f days and 3.38^e days.

In series [3], `O=S(=O)(O)C(F)(F)C(F)(F)OC(F)C(F)(F)F` (stereo not shown) [NVHOS, 1,1,2,2-tetrafluoro-2-(1,2,2,2-tetrafluoroethoxy)ethanesulfonic acid] registered a concentration at 5 months of 1.14 ng/mL. Further, the logKow in series [4] is 2.58^a.

For `O=C(O)C(F)(F)C(F)(F)C(F)(F)C(F)(F)C(F)(F)F` [PFHxA, perfluorohexanoic acid], the logKow in series [4] is on record as 2.8^a. In addition, the published half-lives in series [2] is 30 to 60 days. The half-life in series [2] (ref Russel et al. 52) was 32^g days.

In the case of `O=C(O)C(F)(F)C(F)(F)C(F)(F)C(F)(F)C(F)(F)C(F)(F)C(F)(F)F` [PFOA, perfluorooctanoic acid], the logKow in series [1] was 3.1^b. Also, the published half-lives in series [2] was 800 to 1200 days. Further, the half-life in series [2] (setting [8]) was 902^c days; in series [2] (setting [7]), 902^e days.
